From patent US6627202B2, “HBV core antigen particles with multiple immunogenic components attached via peptide ligands” (Biogen, Inc., priority 1998, dated 2003)
“And” between values parts separate entries of the source, which are not always exact repeats. Equal values may be shown once. Non-standard residues stand in square brackets, D forms with d. No end group written: not given here. βAla = NCCC(=O)O

B1: C-terminally truncated HBV core antigen aa3-148: C-terminally truncated HBV core antigen expressed in E.coli (protein)
chain: IDPYKEFGATVELLSFLPSDFFPSVRDLLDTASALYREALESPEHCSPHHTALRQAILCWGELMTLATWVGVNLEDPASRDLVVSYVNTNMGLKFRQLLWFHISCLTFGRETVIEYLVSFGVWIRTPPAYRPPNAPILSTLPETTV

Biological target: binding of L HBsAg to HBV core antigen (Hepatitis B virus genotype D subtype adw, UniProt P03147)
Sequence (P03147 3-183): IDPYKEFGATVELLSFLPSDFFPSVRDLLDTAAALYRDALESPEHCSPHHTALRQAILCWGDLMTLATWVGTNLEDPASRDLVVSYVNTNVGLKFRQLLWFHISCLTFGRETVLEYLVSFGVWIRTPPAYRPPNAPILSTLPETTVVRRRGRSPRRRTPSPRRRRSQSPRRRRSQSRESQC
Assay: not given
Conditions: N/D represents no observable inhibition; read-out: IC50 μM, concentration of peptide required to inhibit binding of L HBsAg to HBV core antigen at a half maximal level; cited from earlier work

With ACSLLGRMKG as the molecule, how does the IC50 read?
Its IC50 is 26.2 ± 5 µM.

For ADGSLLGRMKGAAG, which IC50 is on record?
Its IC50 is 4.5 ± 0.8 µM.

With ALLGRMKG as the molecule, how does the IC50 read?
Its IC50 is 10 µM and 11 µM.

For CLLGRMKC, which IC50 is on record?
Its IC50 is 652 ± 74 µM.

Which IC50 does the source give for DGSLLGRMKGAA here?
The IC50 was 3 ± 0.4 µM.

For HRSLLGRMKGA, which IC50 is on record?
Its IC50 is 0.5 ± 0.04 µM.

With LGRMKG as the molecule, how does the IC50 read?
Its IC50 is 980 ± 157 µM.

Which IC50 does the source give for LLGRMKG here?
Its IC50 is 46.2 ± 7.4 µM.

Which IC50 does the source give for MHRSLLGRMKGA here?
The IC50 was 0.8 ± 0.1 µM.

For MHRSLLGRMKGAG(β-A)GC, which IC50 is on record?
The IC50 was 3.8 ± 0.69 µM.

For RSLLGRMKGA, which IC50 is on record?
Its IC50 is 0.29 ± 0.02 µM.

Which IC50 does the source give for RSLLGRMKGA(β-A)C (RSLLGRMKGA[βAla]C) here?
Its IC50 is 0.29 ± 0.03 µM.

For SLLGRMK, which IC50 is on record?
The IC50 was 40.7 ± 4.8 µM.

Which IC50 does the source give for SLLGRMKG here?
The IC50 was 6.4 ± 0.7 µM.

For SLLGRMKG(β-A)C (SLLGRMKG[βAla]C), which IC50 is on record?
The IC50 was 1.8 ± 0.4 µM.

For SLLGRMKGA, which IC50 is on record?
Its IC50 is 2.4 ± 0.2 µM.

Biological target: HBV core antigen (Hepatitis B virus genotype D subtype adw, UniProt P03147)
Sequence (P03147 3-183): as above
Assay: not given
Conditions: fd fusion phage carrying the peptide sequence in the amino terminal region of gpIII; in solution, phage associated form; read-out: KD^Rel (nM) relative dissociation constant; cited from earlier work

Which Kd does the source give for ADGAHRSLLGRMKGA here?
The Kd was 0.94 ± 0.12 nM.

With ADGALLGRMKPA as the molecule, how does the Kd read?
Its Kd is 767 ± 8 nM.

With ADGALLGRMKRA as the molecule, how does the Kd read?
The Kd was 181 ± 12 nM.

With ADGHRSSLLGRMKGA as the molecule, how does the Kd read?
Its Kd is 1.4 ± 0.13 nM.

For ADGPRSSLLGRMKGA, which Kd is on record?
The Kd was 0.84 ± 0.07 nM.

For ADGSLLGRMKPA, which Kd is on record?
Its Kd is 322 ± 50 nM.

For ADGSRSSLLGRMKGA, which Kd is on record?
Its Kd is 1.96 ± 0.32 nM.

With ADGTLLGRMKLA as the molecule, how does the Kd read?
The Kd was 20 ± 2 nM.

For ADGTQRSLLGRMKGA, which Kd is on record?
Its Kd is 0.84 ± 0.06 nM.

Which Kd does the source give for ADGYQRSLLGRMKGA here?
Its Kd is 0.88 ± 0.08 nM.

Which Kd does the source give for ADRSLLGRMKGA here?
The Kd was 1.09 ± 0.02 nM.

Tested on: not listed separately
Assay: storage stability of HBV core antigen preparations
Format: physicochemical
Conditions: 4° C., sucrose gradient fractions in TBS, sucrose (20%), NaN3 (0.02%)
Description: Expression of either HBV core antigen (aa3-183) or C-terminally truncated HBV core antigen aa3-148) in E.coli and purification were performed as described in Dyson and Murray (1995). Protein preparations were stored at 4° C. as sucrose gradient fractions in a buffer containing TBS, sucrose (20%) and NaN3 (0.02%).

Which “stability of protein preparation on storage” value does the source give for B1 here?
The value was “stable in this form for at least six months”.
